A word on the inhibition: it is the change of the read-out against control, counted positive when it falls.

Assay in all cases: Kinase panel (mobility shift)
Type in all cases: biochemical

One assay concerns the target HIPK3 (Homo sapiens, UniProt Q9H422). An outline of the steps: (§1)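 Compound at 5 um + kinase + fluor-labeled substrate, standardized mix; rxn stopped; electrophoretic separation of product/substrate on chip; activity = product vs substrate peak fluorescence. Bins A ≥95%, B 90-94%, C 80-89%.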
For a further assay, the target named is EPH-A4 (Homo sapiens, UniProt P54764). An outline of the steps:
as §1

Another assay has as its target BRK (Homo sapiens, UniProt Q13882). The method, boiled down: as §1
Another assay has as its target LOK (Homo sapiens, UniProt O94804). Particulars: at 5 um. The method, boiled down:
as §1

In the next assay the target is T1, MUSK (Homo sapiens, UniProt O15146).
T1 sequence (O15146 24-869): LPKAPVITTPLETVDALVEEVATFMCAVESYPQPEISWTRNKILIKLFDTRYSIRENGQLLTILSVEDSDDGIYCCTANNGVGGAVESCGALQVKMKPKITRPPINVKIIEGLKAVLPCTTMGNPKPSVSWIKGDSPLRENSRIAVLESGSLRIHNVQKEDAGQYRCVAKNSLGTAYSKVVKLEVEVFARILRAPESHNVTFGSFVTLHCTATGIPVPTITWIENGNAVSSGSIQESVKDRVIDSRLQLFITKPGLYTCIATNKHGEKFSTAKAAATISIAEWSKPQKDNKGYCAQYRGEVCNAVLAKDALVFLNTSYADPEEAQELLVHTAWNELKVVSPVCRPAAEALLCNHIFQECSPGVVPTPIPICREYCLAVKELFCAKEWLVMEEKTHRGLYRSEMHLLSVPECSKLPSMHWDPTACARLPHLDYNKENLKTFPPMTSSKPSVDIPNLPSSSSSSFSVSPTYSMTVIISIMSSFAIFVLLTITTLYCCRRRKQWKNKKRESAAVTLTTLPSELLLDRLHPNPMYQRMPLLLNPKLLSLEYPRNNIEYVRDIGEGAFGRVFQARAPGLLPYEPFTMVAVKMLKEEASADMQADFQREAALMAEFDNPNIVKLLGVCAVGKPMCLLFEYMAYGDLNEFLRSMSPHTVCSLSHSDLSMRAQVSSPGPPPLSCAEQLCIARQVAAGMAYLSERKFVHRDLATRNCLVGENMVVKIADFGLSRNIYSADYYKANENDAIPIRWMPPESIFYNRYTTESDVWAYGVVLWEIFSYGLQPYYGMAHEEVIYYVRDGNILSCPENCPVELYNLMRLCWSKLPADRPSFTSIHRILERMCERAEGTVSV
The method, boiled down: as §1

For another assay, the target named is TIE2 (Homo sapiens, UniProt Q02763). The method, boiled down: as §1
For another assay, the target named is P38-b (Homo sapiens, UniProt Q15759). An outline of the steps:
as §1

The target in another assay is T2, TYRO3 (Homo sapiens, UniProt Q06418).
T2 sequence (Q06418 41-890): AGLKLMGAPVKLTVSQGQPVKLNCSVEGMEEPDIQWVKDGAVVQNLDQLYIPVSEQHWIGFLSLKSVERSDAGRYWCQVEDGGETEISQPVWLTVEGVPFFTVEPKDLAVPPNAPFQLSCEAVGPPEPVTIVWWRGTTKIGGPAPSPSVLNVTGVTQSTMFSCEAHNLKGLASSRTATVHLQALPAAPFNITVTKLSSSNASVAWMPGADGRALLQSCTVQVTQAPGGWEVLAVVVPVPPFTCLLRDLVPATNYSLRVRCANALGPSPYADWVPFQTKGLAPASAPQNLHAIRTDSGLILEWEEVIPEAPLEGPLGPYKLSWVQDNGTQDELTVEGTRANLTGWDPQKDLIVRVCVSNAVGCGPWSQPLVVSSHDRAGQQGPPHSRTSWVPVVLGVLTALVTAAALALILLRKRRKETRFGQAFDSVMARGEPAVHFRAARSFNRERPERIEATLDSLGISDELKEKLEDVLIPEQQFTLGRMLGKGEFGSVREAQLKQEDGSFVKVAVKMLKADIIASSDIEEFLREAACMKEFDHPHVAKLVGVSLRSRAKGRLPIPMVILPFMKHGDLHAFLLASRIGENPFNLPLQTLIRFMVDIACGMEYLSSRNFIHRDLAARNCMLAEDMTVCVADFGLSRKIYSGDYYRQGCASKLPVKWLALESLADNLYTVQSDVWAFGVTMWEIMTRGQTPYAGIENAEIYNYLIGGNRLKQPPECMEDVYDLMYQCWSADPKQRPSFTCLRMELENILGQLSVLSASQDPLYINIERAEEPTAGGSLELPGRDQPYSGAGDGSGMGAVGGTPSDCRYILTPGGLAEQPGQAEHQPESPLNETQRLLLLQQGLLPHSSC
The method, boiled down:
as §1

The next assay addresses KIT (Homo sapiens, UniProt P10721). The method, boiled down:
as §1

A further assay concerns the target PDGFR-a (Homo sapiens, UniProt P16234). The method, boiled down:
as §1

Another assay has as its target PDGFR-b (Homo sapiens, UniProt P09619). An outline of the steps: as §1
In the next assay the target is P38-a (Homo sapiens, UniProt Q16539). The following applies: at 5 um. An outline of the steps:
as §1

The target in the next assay is RIPK2 (Homo sapiens, UniProt O43353). An outline of the steps:
as §1

Each structure is given as a SMILES string.

PDGFR-b, sequence (P09619 33-1106, species assumed): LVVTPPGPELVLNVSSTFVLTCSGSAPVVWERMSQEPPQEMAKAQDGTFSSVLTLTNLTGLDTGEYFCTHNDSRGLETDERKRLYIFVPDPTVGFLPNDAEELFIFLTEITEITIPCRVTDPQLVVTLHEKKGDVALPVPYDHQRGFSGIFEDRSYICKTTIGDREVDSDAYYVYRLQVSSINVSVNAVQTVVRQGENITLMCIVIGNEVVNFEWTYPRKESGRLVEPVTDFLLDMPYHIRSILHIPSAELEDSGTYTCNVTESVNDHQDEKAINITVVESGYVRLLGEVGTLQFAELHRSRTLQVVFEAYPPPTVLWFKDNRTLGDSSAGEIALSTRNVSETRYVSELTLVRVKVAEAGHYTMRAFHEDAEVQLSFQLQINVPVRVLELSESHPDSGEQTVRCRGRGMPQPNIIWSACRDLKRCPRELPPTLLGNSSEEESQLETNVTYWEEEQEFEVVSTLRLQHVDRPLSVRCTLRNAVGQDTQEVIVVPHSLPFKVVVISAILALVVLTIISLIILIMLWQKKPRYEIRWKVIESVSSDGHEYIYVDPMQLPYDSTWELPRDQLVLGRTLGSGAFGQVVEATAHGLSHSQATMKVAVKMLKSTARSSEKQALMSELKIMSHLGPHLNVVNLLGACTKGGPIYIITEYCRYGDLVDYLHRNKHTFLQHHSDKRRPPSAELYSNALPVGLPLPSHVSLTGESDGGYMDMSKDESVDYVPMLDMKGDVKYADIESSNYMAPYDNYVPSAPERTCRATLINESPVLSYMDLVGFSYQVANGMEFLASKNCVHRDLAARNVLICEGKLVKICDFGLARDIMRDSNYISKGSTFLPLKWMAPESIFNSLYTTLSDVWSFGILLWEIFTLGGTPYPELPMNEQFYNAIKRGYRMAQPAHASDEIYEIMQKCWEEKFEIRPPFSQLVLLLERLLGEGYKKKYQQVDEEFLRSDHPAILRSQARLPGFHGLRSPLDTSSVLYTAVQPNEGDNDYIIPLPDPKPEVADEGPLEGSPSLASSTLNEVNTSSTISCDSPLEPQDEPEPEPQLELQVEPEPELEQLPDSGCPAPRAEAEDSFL
P38-b, sequence (Q15759 whole entry, species assumed): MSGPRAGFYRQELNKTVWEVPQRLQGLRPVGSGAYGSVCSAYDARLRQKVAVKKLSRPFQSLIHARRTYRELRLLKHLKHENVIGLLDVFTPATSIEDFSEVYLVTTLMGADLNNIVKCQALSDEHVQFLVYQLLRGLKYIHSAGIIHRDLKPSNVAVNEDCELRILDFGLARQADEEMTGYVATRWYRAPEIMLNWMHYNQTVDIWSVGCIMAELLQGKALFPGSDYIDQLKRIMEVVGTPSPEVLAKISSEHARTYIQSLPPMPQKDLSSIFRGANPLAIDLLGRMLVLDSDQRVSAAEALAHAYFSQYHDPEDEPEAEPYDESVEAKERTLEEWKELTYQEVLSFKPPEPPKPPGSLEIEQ
PDGFR-a, sequence (P16234 24-1089, species assumed): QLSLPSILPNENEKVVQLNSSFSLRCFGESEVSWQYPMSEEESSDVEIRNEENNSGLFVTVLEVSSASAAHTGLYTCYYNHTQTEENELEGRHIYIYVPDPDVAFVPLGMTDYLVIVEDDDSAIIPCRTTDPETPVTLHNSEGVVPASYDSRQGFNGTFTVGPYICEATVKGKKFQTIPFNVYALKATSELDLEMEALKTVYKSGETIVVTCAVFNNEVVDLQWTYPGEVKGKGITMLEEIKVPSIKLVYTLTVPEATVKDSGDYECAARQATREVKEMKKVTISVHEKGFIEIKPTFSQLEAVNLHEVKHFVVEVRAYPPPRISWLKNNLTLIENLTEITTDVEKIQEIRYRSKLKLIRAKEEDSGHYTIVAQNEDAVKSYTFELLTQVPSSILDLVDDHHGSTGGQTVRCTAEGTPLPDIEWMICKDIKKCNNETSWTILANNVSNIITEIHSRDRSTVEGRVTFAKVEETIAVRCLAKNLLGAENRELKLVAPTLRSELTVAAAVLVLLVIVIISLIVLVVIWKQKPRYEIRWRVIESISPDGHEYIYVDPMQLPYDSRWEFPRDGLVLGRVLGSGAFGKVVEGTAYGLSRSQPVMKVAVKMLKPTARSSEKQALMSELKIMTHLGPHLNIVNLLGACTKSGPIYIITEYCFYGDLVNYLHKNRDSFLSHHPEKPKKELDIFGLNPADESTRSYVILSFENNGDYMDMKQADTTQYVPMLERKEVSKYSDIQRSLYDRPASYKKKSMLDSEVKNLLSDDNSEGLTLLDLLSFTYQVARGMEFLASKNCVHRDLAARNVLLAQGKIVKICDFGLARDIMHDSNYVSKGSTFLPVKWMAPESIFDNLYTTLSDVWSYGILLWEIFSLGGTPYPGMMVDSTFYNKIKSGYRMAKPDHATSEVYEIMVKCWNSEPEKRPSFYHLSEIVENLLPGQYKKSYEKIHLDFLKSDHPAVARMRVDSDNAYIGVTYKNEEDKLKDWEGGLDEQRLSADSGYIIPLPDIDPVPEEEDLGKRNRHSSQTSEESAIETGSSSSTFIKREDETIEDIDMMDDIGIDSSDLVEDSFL
RIPK2, sequence (O43353 whole entry, species assumed): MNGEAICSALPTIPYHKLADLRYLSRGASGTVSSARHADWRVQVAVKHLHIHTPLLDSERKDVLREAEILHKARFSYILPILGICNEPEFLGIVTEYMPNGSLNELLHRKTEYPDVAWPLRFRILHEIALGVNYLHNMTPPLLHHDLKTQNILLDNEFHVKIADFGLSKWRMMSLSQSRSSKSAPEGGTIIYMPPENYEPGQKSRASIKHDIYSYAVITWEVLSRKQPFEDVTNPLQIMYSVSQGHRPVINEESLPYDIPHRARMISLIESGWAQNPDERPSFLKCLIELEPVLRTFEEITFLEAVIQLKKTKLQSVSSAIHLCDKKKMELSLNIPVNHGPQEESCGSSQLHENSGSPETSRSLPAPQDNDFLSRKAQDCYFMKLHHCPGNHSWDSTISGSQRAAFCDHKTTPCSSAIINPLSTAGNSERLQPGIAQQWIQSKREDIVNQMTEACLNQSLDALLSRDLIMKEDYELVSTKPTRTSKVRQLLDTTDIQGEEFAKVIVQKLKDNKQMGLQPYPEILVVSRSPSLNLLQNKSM
LOK, sequence (O94804 whole entry, species assumed): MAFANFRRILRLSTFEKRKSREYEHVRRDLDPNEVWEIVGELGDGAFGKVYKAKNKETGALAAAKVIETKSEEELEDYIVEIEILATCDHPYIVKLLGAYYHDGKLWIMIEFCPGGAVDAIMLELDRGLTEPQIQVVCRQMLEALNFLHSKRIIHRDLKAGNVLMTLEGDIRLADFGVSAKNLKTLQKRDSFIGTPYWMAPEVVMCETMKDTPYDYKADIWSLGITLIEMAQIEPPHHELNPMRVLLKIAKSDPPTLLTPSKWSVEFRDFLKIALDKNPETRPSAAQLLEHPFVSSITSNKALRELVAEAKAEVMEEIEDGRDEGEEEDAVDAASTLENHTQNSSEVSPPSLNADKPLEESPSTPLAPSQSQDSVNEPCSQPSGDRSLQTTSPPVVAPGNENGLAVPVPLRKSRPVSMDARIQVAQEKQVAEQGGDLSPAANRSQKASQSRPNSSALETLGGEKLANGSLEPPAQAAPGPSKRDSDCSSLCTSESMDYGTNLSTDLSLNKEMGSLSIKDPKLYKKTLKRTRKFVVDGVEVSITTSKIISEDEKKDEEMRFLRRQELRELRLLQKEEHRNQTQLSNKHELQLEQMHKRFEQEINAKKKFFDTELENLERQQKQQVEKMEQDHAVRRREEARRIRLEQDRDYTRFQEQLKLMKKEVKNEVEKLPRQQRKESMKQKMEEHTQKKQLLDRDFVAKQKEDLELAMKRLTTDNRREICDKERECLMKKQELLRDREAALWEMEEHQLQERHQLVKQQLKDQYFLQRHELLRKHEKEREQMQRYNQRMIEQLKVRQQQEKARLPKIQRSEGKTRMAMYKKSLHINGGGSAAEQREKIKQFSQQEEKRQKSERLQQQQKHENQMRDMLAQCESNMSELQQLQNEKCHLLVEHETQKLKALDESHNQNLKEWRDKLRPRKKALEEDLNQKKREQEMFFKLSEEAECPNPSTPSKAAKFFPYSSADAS
BRK, sequence (Q13882 whole entry, species assumed): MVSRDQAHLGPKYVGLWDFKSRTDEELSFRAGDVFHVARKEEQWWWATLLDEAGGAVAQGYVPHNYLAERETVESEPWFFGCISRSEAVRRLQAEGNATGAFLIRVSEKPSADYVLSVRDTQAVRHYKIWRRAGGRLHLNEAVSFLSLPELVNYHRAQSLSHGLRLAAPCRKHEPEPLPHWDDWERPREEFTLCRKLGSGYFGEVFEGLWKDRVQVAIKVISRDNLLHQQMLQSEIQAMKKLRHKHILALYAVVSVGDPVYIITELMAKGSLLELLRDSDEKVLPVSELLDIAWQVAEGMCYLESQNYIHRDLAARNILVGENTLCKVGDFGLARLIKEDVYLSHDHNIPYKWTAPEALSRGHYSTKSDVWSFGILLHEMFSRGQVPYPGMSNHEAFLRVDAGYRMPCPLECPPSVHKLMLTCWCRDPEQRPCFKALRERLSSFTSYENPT
P38-a, sequence (Q16539 whole entry): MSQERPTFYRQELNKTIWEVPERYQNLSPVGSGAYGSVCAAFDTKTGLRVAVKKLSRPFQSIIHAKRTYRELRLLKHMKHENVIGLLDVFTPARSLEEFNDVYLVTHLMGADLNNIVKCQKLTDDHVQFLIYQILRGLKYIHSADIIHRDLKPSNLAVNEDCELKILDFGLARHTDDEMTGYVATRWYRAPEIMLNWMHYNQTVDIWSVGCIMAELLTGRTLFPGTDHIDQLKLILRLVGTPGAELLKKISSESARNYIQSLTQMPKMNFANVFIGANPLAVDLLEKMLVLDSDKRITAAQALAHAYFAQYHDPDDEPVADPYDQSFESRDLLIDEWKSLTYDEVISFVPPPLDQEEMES

For `CSc1nc(C(=O)Nc2ccc(Oc3ccnc(C(=O)NC4CNC4)c3)c(F)c2)c(-c2ccc(F)cc2)o1` [Compound 29], the inhibition at 5 µM at HIPK3 was 80 to 89%; on EPH-A4 it was 50 to 79%; at BRK, no less than 95%; on MUSK, less than 50%; at TIE2 it was less than 50%; on P38-b, 80 to 89%. In addition, the inhibition at 5 µM at TYRO3 is 50 to 79%; on KIT it was less than 50%; on PDGFR-a, less than 50%; on PDGFR-b, less than 50%; on RIPK2 it was 80 to 89%. Further, the “inhibition of kinase activity, LOK” value on LOK was “D (category D for 50-79)”. For the same molecule, the “inhibition of kinase activity, P38-a” value on P38-a was “A (A=95% or greater at 5 um)”.
`CSc1nc(C(=O)Nc2ccc(Oc3ccnc(-c4cnn(C)c4)c3)c(F)c2)c(-c2ccc(F)cc2)o1` [Compound 11]: the inhibition at 5 µM at HIPK3 was less than 50%; on EPH-A4, 90 to 94%; at BRK it was no less than 95%; at MUSK it was 50 to 79%; on TIE2 it was 80 to 89%; at P38-b it was 80 to 89%. Further, the inhibition at 5 µM on TYRO3 was no less than 95%; on KIT, 80 to 89%; at PDGFR-a, 90 to 94%; at PDGFR-b it was less than 50%; at RIPK2, 50 to 79%. Also, the “inhibition of kinase activity, LOK” value at LOK is “B (B=90%-94% at 5 um)”. The “inhibition of kinase activity, P38-a” value at P38-a was “B (B=90%-94% at 5 um)”.
Regarding `CNC(=O)c1cc(Oc2ccc(NC(=O)c3nc(OC)oc3-c3ccc(F)s3)cc2F)ccn1` [Compound 25], the inhibition at 5 µM on HIPK3, at EPH-A4, at BRK, on MUSK, on TIE2 and at P38-b was less than 50% throughout. In addition, the inhibition at 5 µM on TYRO3 is 50 to 79%; on KIT, less than 50%; at PDGFR-a, less than 50%; on PDGFR-b it was less than 50%; on RIPK2, less than 50%. Moreover, at LOK, the “inhibition of kinase activity, LOK” value was “D (category D for 50-79)”. The “inhibition of kinase activity, P38-a” value on P38-a was “E (category E is less than 50%)”.
Take `CNC(=O)c1cc(Oc2ccc(NC(=O)c3nc(NC)oc3-c3ccc(F)s3)cc2F)ccn1` [Compound 17]: the inhibition at 5 µM on HIPK3, at EPH-A4, on BRK, at MUSK, at TIE2 and at P38-b was less than 50% throughout. Also, the inhibition at 5 µM on TYRO3, at KIT, on PDGFR-a, on PDGFR-b and on RIPK2 was less than 50% each time. Moreover, the “inhibition of kinase activity, LOK” value on LOK is recorded as “D (category D for 50-79)”. Moreover, the “inhibition of kinase activity, P38-a” value on P38-a is listed as “E (category E is less than 50%)”.
Regarding `CNC(=O)c1cc(Oc2ccc(NC(=O)c3nc(SC)oc3-c3ccc(F)cc3F)cc2F)ccn1` [Compound 12], the inhibition at 5 µM was 50 to 79% on HIPK3; 50 to 79% on EPH-A4; no less than 95% at BRK; 50 to 79% on MUSK; 50 to 79% on TIE2; less than 50% at P38-b. The inhibition at 5 µM on TYRO3 is 90 to 94%; at KIT it was 50 to 79%; on PDGFR-a, less than 50%; on PDGFR-b it was less than 50%; at RIPK2, 90 to 94%. The “inhibition of kinase activity, LOK” value at LOK is given as “D (category D for 50-79)”. Further, on P38-a, the “inhibition of kinase activity, P38-a” value was “D (category D for 50-79)”.
Consider `CSc1nc(C(=O)Nc2ccc(Oc3ccnc(C(=O)NCCN(C)C)c3)c(F)c2)c(-c2ccc(F)cc2)o1` [Compound 41], for which the inhibition at 5 µM at HIPK3 is less than 50%; on EPH-A4, 50 to 79%; on BRK, no less than 95%; on MUSK, less than 50%; on TIE2 it was less than 50%; on P38-b, 80 to 89%. Further, the inhibition at 5 µM on TYRO3 is 50 to 79%; on KIT, less than 50%; at PDGFR-a it was less than 50%; on PDGFR-b, less than 50%; on RIPK2, 80 to 89%. Further, at LOK, the “inhibition of kinase activity, LOK” value was “E (category E is less than 50%)”. Besides, at P38-a, the “inhibition of kinase activity, P38-a” value is “A (A=95% or greater at 5 um)”.
For the molecule `CNC(=O)c1cc(Oc2ccc(NC(=O)c3nc(C4CC4)oc3-c3ccc(F)cc3)cc2F)ccn1` [Compound 26], the inhibition at 5 µM at HIPK3 was 50 to 79%; at EPH-A4, 80 to 89%; at BRK, 90 to 94%; at MUSK, 80 to 89%; at TIE2, 80 to 89%; at P38-b, 50 to 79%. The inhibition at 5 µM on TYRO3 is 90 to 94%; at KIT it was 50 to 79%; on PDGFR-a, 50 to 79%; on PDGFR-b it was less than 50%; on RIPK2, 80 to 89%. Further, the “inhibition of kinase activity, LOK” value at LOK is recorded as “C (C=80%-89% at 5 um)”. Also, the “inhibition of kinase activity, P38-a” value at P38-a is recorded as “B (B=90%-94% at 5 um)”.
Take `CNC(=O)c1cc(Oc2ccc(NC(=O)c3nc(S(C)(=O)=O)sc3-c3ccc(F)cc3)cc2F)ccn1` [Compound 13]: the inhibition at 5 µM at HIPK3 was 80 to 89%; at EPH-A4 it was 50 to 79%; on BRK it was 50 to 79%; on MUSK, 50 to 79%; at TIE2 it was 50 to 79%; on P38-b, less than 50%. The inhibition at 5 µM is 80 to 89% at TYRO3; less than 50% on KIT; 50 to 79% at PDGFR-a; less than 50% at PDGFR-b; 80 to 89% at RIPK2. Also, the “inhibition of kinase activity, LOK” value at LOK is listed as “E (category E is less than 50%)”. Also, on P38-a, the “inhibition of kinase activity, P38-a” value is “E (category E is less than 50%)”.
